Experimental data taken from PMC6261651, “A functional proteomics platform to reveal the sequence determinants of lysine methyltransferase substrate selectivity” (Science Advances, 2018).
“Also recorded” adds a separate entry of the source. Where no end group is shown, it is not given here. [ ]: non-standard residue; d: D form. Nle = CCCC[C@H](N)C(=O)O

Columns and labels:
Type in all cases: biochemical
SMYD2 [1] = biological target: T1, SMYD2 (Homo sapiens, UniProt Q9NRG4); assay: SPA kinetic analysis of SMYD2 methylation of peptide substrates; conditions: 200 nM SMYD2, 50 μM SAM, varied substrate concentration, mean of three independent measurements (Fig. 4D)
T1 construct: SMYD2 (full length) was expressed as a N-terminal glutathione S-transferase (GST) fusion; GST (N); made in house; host or cells: Escherichia coli BL21(DE3)
T1 sequence (Q9NRG4 whole entry, the tested form may be a part): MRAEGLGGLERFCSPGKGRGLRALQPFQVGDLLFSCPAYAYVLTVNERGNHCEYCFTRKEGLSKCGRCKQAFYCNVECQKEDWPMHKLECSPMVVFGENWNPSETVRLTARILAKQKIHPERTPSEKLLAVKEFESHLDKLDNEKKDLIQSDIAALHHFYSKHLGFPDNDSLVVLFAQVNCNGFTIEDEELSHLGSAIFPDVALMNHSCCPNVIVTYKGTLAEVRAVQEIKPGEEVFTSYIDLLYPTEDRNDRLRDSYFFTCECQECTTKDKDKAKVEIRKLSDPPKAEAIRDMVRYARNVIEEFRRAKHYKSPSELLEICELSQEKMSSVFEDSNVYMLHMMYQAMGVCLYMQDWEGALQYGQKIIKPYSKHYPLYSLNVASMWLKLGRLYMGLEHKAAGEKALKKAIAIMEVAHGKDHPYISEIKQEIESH
Method: (§1) Reactions (10 μl) containing 1 μg of KMT, 1 μg of a K-OPL set, and 1 μCi of ^3H-SAM (PerkinElmer) in KMT reaction buffer [50 mM tris (pH 8.8), 5 mM MgCl2, and 4 mM dithiothreitol] were incubated for 1 hour at room temperature. Reactions were stopped by adding trifluoracetic acid to a final concentration of 0.5%, neutralized by diluting with 135 μl of 50 mM NaHCO3, and transferred to streptavidin-coated FlashPlates (PerkinElmer). Plates were incubated for 15 min, sealed, and counted in a MicroBeta2 liquid scintillation counter (PerkinElmer) for 1 min per sample. Initial rate measure and kinetic analysis were performed using the same procedure with 200 nM SMYD2, 50 μM SAM (5:1 cold/hot ratio), and 80 μM substrate (initial rate measurements) or as indicated (kinetic analysis). IC50 measurements were performed using the same conditions with 5 μM PER2 peptide as a substrate.

SMYD2 [2] = biological target: T1, SMYD2; assay: MALDI-TOF-MS and MS/MS analysis of methylation products, SMYD2; conditions: 200 nM KMT, 80 μM peptide, 50 μM SAM, 1 hour, room temperature; MALDI-TOF-MS (Fig. 3C)
Method: (§2) For MS experiments, 200 nM KMT, 80 μM peptide, and 50 μM SAM were incubated in KMT reaction buffer for 1 hour at room temperature. Reactions were quenched with 0.5% trifluoroacetic acid and analyzed by MS. KMT-reacted samples were deposited on a MALDI target plate (4 μl per spot) and mixed with 1 μl of matrix solution (α-cyano-4-hydroxycinnamic acid in 50% acetonitrile). MALDI-TOF-MS and MS/MS (positive ion mode at 1 kV) spectra were collected using SCIEX TOF/TOF 5800 MALDI MS spectrometer. The peptide fragmentation modeling and peak assignments were done using the Peptide Sequence Fragmentation Modeling tool (https://omics.pnl.gov/software/molecular-weight-calculator).

SMYD2 [3] = biological target: T1, SMYD2; assay: SPA initial rate measurements with peptide substrates, SMYD2; conditions: 200 nM SMYD2, 50 μM SAM (5:1 cold/hot), 80 μM substrate, room temperature, mean of three independent measurements (Fig. 2F), text gives words only
Source text: To measure enzyme activity, we developed a scintillation proximity assay (SPA), which quantified the transfer of tritium-labeled methyl groups from the cofactor and methyl donor S-adenosylmethionine (SAM) to each K-OPL set (Fig. 1B). SPAs permit sensitive analysis of enzymatic activity and are advantageous when the reaction product is unknown. This platform enabled us to rapidly determine a KMT’s preference for any amino acid (except cysteine) at any position ± three positions from a target lysine.
as §1

SET7/9 [4] = biological target: T2, SET7/9 (Homo sapiens, UniProt Q8WTS6); assay: MALDI-TOF-MS and MS/MS analysis of methylation products, SET7/9; conditions: 200 nM KMT, 80 μM peptide, 50 μM SAM, 1 hour, room temperature; MALDI-TOF-MS (Fig. 3B)
T2 construct: purchased New England BioLabs M0223
T2 sequence (Q8WTS6 1-366): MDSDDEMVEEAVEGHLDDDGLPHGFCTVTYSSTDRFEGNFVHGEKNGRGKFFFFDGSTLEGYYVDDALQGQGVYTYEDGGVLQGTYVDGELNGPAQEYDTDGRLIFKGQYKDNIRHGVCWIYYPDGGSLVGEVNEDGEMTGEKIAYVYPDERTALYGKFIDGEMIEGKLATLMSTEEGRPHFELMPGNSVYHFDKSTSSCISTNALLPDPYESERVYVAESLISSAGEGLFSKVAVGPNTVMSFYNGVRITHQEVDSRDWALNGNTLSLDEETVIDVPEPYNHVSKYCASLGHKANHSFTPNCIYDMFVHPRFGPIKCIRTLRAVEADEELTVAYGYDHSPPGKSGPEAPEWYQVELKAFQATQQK
Method: as §2

SET7/9 [5] = biological target: T2, SET7/9; assay: SPA initial rate measurements with peptide substrates, SET7/9; conditions: 3H-SAM, 50 μM SAM (5:1 cold/hot), 80 μM substrate, room temperature, mean of three independent measurements (Fig. 2E), text gives words only
SMYD2 [6] = biological target: T1, SMYD2; assay: IC50 measurements of Nle peptide inhibitors of SMYD2 using PER2 as a substrate (SPA); conditions: 200 nM SMYD2, 50 μM SAM, 5 μM PER2 peptide as substrate, mean of three (Fig. 4E), IC50 values not given
Method: as §1

SMYD2 [7] = biological target: T1, SMYD2; assay: In vitro SMYD2 methyltransferase assay with protein substrates (SDS-PAGE, 3H fluorography); conditions: 1 μg of KMT, 1 μg of substrate, 1 μCi 3H-SAM, 1 hour, room temperature; 3H fluorography (Fig. 5A, 5B, fig. S5A)
Method: Reactions (10 μl) containing 1 μg of KMT, 1 μg of the indicated substrates, and 1 μCi of ^3H-SAM (PerkinElmer) in KMT reaction buffer were incubated for 1 hour at room temperature. Reactions were quenched by the addition of SDS loading buffer and resolved by SDS–polyacrylamide gel electrophoresis. Following the detection of total protein by Coomassie staining, gels were treated with EN^3HANCE (PerkinElmer) and dried, and methylated proteins were detected by autoradiography.
Fig. S5. In vitro SMYD2 assays with protein substrates. (A) Coomassie stained SDS-PAGE of recombinant control (HIS-GST), known substrates (p53, MAPKAPK3), and predicted substrates (PRDM11, GDAP1, MAP3K12) in the absence and presence of SMYD2. Reactions were carried out with 1 μg of SMYD2, 1 μg of substrate, and 1 μCi of 3H-SAM. 3H fluorograph shown below after 24 hour exposure at -80 °C (B) Cartoon repre- sentation of ZPK (PDB:
5CEN) showing plus and minus three amino acids from the target lysine (PO) as stick models.
(1 picture or pasted object on this page, not shown here)

G9a [8] = biological target: T3, G9a (Homo sapiens, UniProt Q96KQ7); assay: SPA initial rate measurements with peptide substrates, G9a; conditions: 3H-SAM, 50 μM SAM (5:1 cold/hot), 80 μM substrate, room temperature, mean of three independent measurements (Fig. 2D), text gives words only
T3 construct: G9a (amino acids 913 to 1210) was produced as a 6XHis N-terminal fusion; 6XHis (N); made in house; host or cells: Escherichia coli BL21(DE3)
T3 sequence (Q96KQ7 913-1210): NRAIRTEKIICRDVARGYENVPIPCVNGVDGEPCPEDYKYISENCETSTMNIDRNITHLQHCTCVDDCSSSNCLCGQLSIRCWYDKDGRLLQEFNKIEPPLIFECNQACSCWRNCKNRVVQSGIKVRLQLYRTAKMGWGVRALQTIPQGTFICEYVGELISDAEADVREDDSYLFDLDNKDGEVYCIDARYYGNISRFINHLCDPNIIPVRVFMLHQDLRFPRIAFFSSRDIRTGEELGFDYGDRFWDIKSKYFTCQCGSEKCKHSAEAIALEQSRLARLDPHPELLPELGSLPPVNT

G9a [9] = biological target: T3, G9a; assay: MALDI-TOF-MS and MS/MS analysis of methylation products, G9a; conditions: 200 nM KMT, 80 μM peptide, 50 μM SAM, 1 hour, room temperature; MALDI-TOF-MS (Fig. 3A)
Method: as §2

With “DKLKSKR [PER2 derivative peptide with aspartic acid in the P−3 position]” the “kinetic model of SMYD2 methylation” value (SMYD2 [1]) was “followed a classical MM model”.

With “RKLKSKR [PER2 K798, peptide corresponding to lysine 798 of PER2; SMYD2 substrate]” the “methylation products with SMYD2” value (SMYD2 [2]) was “addition of a single methyl group” and the “rate of methylation by SMYD2 (substrate efficiency)” value (shortened to “rate of methylation by SMYD2”) (SMYD2 [3]) was “more efficient substrate than peptides corresponding to previously reported SMYD2 substrates p53 K370 and MAPKAPK3 K355”.

For “RKLKEKR [PER2 derivative peptide with glutamic acid in the P+1 position]”, the “rate of methylation by SMYD2” value (SMYD2 [3]) was “equally poor SMYD2 substrates”.

In the case of “RRSKRRK [SCN5A K477, optimal SET7/9 substrate predicted by K-OPL]”, the “methylation products with SET7/9” value (SET7/9 [4]) is reported as “addition of a single methyl group” and the “rate of methylation by SET7/9 (substrate efficiency)” value (SET7/9 [5]) is reported as “methylated at a faster rate than p53 K372”.

RKD[Nle]SKR [Nle derivative of RKDKSKR] was tested, and the “inhibition of SMYD2 methylation of PER2” value (SMYD2 [6]) was “less effective”.

“SHLKSKK [p53 K370, peptide corresponding to previously reported SMYD2 substrate p53 K370, reference compound]” was tested, and the “kinetic model of SMYD2 methylation” value (SMYD2 [1]) was “standard Michaelis-Menten (MM) model” and the “kinetic model of SMYD2 methylation” value (SMYD2 [1]; listed as p53) was “classical MM kinetics”.

For “PRDM11: recombinant PRDM11 (amino acids 79 to 314)”, the “methylation of recombinant protein substrate by SMYD2” value (SMYD2 [7]) was “methylated by SMYD2; also recorded: at least as efficiently as the known substrate, p53”.

In the case of “PRDM11 K89D: PRDM11 mutant predicted to render this SMYD2 substrate deficient”, the “methylation of recombinant protein substrate by SMYD2” value (SMYD2 [7]) is reported as “reduced compared to the wild-type PRDM11”.

For “RKDKSKR [PER2 derivative peptide with aspartic acid in the P−1 position]”, the “rate of methylation by SMYD2” value (SMYD2 [3]) was “equally poor SMYD2 substrates”.

For “TARKRFK [optimal G9a peptide substrate derived from the K-OPL profile]”, the “rate of methylation by G9a (substrate efficiency)” value (G9a [8]) was “more efficient substrate than H3K9 or WIZ” and the “methylation products with G9a” value (G9a [9]) was “both monomethyl and dimethyl products”.

In the case of “WKLKSKR [optimal K-OPL-derived SMYD2 substrate, not found in any human protein]”, the “kinetic model of SMYD2 methylation” value (SMYD2 [1]) is reported as “consistent with substrate inhibition” and the “rate of methylation by SMYD2” value (SMYD2 [3]) is reported as “increased the rate of methylation”.
